According to patent publication US9340590B2 (priority 2011, dated 2016):
Read-outs that look alike come from different tables or passages of the source. Positions of bridges follow the written chain, without caps; N, C: chain ends. Non-standard residues stand in square brackets, D forms with d. Residues, ends and D or L forms follow the SMILES beside them. *: point of attachment. 1Nal = N[C@@H](Cc1cccc2ccccc12)C(=O)O; Lys(Me2) = CN(C)CCCC[C@H](N)C(=O)O; Pent4ynoyl = C#CCCC(=O)*; Nva = CCC[C@H](N)C(=O)O

Experiments:
Assay in all cases: cell-based
hNav1.5 = hNav1.5 (Homo sapiens, UniProt Q14524); conditions: IonWorks Quattro, read-out: IWQ Use Nav1.5
hNav1.3 = hNav1.3 (Homo sapiens, UniProt Q9NY46); conditions: IonWorks Quattro, read-out: IWQ Use Nav1.3
hNav1.7 = hNav1.7 (Homo sapiens, UniProt Q15858); type: cell-based
[1] = IonWorks Quattro, use-dependent block, hNav1.7, read-out: IWQ Use Nav1.7

Sequence of hNav1.5 (Q14524 whole entry, looked up): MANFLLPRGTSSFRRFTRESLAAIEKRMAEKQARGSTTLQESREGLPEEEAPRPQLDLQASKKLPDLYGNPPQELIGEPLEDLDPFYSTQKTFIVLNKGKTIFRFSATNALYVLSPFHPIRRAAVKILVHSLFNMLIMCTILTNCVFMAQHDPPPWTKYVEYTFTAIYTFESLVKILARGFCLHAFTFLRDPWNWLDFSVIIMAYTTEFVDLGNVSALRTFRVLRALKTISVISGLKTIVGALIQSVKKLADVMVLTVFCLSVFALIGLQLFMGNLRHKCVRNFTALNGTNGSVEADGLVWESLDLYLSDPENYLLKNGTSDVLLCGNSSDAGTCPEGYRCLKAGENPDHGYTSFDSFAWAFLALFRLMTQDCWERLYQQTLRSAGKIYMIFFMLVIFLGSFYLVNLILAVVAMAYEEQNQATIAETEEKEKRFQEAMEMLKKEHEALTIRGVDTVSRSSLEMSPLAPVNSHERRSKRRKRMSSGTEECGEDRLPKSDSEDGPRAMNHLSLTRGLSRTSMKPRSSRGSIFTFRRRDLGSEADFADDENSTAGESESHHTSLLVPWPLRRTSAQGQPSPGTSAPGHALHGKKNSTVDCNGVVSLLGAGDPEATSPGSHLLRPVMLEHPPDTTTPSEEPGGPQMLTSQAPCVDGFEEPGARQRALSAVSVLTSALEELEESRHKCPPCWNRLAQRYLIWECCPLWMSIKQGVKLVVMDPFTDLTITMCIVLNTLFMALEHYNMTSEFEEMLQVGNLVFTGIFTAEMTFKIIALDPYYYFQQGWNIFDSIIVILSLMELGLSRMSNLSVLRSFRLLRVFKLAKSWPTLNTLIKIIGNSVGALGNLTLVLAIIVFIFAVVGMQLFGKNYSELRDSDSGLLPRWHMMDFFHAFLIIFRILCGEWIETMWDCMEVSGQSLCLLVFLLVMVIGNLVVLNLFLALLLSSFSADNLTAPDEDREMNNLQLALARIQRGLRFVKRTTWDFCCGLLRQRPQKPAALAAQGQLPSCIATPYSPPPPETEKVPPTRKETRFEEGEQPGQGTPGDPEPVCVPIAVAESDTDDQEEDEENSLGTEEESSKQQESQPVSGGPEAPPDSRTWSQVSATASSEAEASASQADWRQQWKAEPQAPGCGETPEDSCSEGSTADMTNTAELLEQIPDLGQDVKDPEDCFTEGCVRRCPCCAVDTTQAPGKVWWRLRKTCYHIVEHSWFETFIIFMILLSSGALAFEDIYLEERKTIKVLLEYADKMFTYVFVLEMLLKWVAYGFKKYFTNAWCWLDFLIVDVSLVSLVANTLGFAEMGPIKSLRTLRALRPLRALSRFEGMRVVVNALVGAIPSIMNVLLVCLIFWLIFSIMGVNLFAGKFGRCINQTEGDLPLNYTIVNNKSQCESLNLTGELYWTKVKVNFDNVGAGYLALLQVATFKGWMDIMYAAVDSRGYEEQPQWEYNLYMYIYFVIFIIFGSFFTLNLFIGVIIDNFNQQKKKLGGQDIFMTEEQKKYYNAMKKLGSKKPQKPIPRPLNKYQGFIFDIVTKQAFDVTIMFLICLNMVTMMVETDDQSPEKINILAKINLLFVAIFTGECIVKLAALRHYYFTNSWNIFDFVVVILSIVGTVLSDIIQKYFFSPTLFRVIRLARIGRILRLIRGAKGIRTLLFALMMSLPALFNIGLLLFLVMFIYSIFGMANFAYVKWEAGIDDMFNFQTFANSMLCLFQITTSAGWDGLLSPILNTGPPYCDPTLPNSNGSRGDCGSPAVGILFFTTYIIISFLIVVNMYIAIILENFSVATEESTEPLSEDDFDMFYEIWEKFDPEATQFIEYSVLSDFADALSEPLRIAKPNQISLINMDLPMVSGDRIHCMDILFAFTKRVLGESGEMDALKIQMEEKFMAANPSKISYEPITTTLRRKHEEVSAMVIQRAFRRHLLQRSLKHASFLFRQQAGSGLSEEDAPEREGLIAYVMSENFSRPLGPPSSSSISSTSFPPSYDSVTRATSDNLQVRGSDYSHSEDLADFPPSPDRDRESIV
Sequence of hNav1.7 (Q15858 whole entry, looked up): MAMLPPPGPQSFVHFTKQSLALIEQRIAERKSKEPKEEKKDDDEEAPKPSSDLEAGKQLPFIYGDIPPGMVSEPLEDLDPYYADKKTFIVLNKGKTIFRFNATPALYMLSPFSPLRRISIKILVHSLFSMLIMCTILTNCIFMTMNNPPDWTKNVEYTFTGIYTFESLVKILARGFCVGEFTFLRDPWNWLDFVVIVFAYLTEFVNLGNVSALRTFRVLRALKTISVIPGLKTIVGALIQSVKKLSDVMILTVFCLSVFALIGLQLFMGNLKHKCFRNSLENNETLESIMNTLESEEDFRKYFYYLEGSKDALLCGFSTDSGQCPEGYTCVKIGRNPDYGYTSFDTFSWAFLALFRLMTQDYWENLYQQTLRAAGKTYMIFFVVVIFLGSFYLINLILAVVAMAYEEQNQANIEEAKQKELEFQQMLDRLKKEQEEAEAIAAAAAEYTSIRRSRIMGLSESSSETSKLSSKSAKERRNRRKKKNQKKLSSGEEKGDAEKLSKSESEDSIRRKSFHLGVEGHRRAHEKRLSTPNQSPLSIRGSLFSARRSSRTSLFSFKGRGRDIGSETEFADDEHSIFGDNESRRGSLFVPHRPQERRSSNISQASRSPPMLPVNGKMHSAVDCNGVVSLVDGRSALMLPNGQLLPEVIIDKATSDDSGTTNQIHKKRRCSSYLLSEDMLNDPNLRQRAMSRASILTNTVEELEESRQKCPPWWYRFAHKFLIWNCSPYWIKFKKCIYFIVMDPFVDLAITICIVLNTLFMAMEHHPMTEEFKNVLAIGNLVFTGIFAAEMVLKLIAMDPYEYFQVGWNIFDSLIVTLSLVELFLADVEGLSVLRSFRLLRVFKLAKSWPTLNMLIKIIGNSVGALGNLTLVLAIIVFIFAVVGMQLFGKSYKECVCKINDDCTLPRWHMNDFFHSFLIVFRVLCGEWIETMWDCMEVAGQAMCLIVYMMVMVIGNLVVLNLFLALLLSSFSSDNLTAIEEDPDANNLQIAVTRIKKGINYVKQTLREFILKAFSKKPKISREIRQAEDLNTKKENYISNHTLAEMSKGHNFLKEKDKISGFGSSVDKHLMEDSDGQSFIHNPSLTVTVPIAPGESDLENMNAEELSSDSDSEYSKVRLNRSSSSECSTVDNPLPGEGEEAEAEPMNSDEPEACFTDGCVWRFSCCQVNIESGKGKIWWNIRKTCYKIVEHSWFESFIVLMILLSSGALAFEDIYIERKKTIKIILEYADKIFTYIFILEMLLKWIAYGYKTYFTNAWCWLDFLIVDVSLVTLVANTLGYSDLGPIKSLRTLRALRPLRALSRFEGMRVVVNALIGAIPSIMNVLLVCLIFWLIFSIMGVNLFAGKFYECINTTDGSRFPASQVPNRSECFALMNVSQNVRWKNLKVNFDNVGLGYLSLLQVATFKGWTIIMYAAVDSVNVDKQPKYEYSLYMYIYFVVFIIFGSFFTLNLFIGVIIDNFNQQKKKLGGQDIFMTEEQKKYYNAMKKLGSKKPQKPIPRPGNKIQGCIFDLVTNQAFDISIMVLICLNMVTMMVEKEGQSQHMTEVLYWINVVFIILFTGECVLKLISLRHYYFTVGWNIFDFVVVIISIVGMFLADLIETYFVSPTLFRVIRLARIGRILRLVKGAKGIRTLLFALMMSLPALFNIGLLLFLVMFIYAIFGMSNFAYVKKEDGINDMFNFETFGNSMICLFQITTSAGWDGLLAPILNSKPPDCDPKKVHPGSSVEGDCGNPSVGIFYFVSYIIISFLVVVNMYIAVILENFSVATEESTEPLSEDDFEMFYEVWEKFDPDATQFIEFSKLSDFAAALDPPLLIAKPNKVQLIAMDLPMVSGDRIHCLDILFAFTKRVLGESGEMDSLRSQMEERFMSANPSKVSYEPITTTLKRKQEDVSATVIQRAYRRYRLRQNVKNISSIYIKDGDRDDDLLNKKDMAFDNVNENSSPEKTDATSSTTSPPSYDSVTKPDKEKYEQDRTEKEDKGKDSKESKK

| Structure (SMILES) | IC50 (hNav1.5; use-dependent block, hNav1.5) | IC50 (hNav1.3; use-dependent block, hNav1.3) | IC50 (hNav1.7; [1]) | also measured |
| --- | --- | --- | --- | --- |
| CC[C@H](C)[C@@H]1NC(=O)[C@@H]2CSSC[C@@H]3NC(=O)[C@H](C(C)C)NC(=O)[C@H](CC(C)C)NC(=O)[C@H](CC(N)=O)NC(=O)[C@@H]4CCCN4C(=O)[C@H](CCCNC(=N)N)NC(=O)[C@H](CSSC[C@H](NC(=O)[C@@H](N)CC(=O)O)C(=O)N[C@@H](CC(C)C)C(=O)NCC(=O)N[C@@H](C)C(=O)N[C@@H](CCSC)C(=O)N[C@@H](CCCNC(=N)N)C(=O)N[C@@H](CCCCN)C(=O)N2)NC(=O)[C@H](CSSC[C@@H](C(=O)N[C@@H](CCCCN)C(=O)N[C@@H](Cc2ccc(O)cc2)C(=O)N[C@H](C(=O)N[C@@H](Cc2ccccc2)C(N)=O)C(C)C)NC(=O)[C@H](Cc2c[nH]c4ccccc24)NC(=O)[C@H](CCCCN)NC(=O)[C@H](Cc2c[nH]cn2)NC(=O)[C@H](CCC(=O)O)NC(=O)[C@H](CCCNC(=N)N)NC(=O)[C@H](CO)NC3=O)NC(=O)[C@H](CCCCN)NC(=O)[C@H](CC(=O)O)NC(=O)[C@H](CC(N)=O)NC(=O)[C@H](CC(=O)O)NC(=O)[C@@H]2CCCN2C1=O [compound 787] (H-DCLGAMRKCIPDNDKCCRPNLVCSREHKWCKYVF-NH2; disulfide 2-17, 9-23, 16-30) | 27.3 µM | > 5 µM | > 5 µM |  |
| C#CCCC(=O)NCCCC[C@@H]1NC(=O)[C@H](CC(=O)O)NC(=O)[C@@H]2CCCN2C(=O)[C@H]([C@@H](C)CC)NC(=O)[C@@H]2CSSC[C@@H]3NC(=O)[C@H](C(C)C)NC(=O)[C@H](CC(C)C)NC(=O)[C@H](CC(N)=O)NC(=O)[C@@H]4CCCN4C(=O)[C@H](CCCNC(=N)N)NC(=O)[C@H](CSSC[C@H](NC(=O)[C@@H](N)CC(=O)O)C(=O)N[C@@H](CC(C)C)C(=O)NCC(=O)N[C@@H](CCC)C(=O)N[C@@H](CC(C)C)C(=O)N[C@@H](CCCNC(=N)N)C(=O)N[C@@H](CCCCN)C(=O)N2)NC(=O)[C@H](CSSC[C@@H](C(=O)N[C@@H](CCCCN)C(=O)N[C@@H](Cc2ccc(O)cc2)C(=O)N[C@H](C(=O)N[C@@H](Cc2ccccc2)C(N)=O)C(C)C)NC(=O)[C@H](Cc2c[nH]c4ccccc24)NC(=O)[C@H](CCCCN)NC(=O)[C@H](Cc2c[nH]cn2)NC(=O)[C@H]([C@@H](C)O)NC(=O)[C@H](CCCNC(=N)N)NC(=O)[C@H](CO)NC3=O)NC(=O)[C@H](CCCCN)NC(=O)[C@H](CC(=O)O)NC1=O [compound 806] (H-DCLG[Nva]LRKCIPDK(Pent4ynoyl)DKCCRPNLVCSRTHKWCKYVF-NH2; disulfide 2-17, 9-23, 16-30) | 34.2 µM | 0.39 µM | 0.29 µM |  |
| CC[C@H](C)[C@@H]1NC(=O)[C@@H]2CSSC[C@@H]3NC(=O)[C@H](C(C)C)NC(=O)[C@H](CC(C)C)NC(=O)[C@H](CC(N)=O)NC(=O)[C@@H]4CCCN4C(=O)[C@H](CCCNC(=N)N)NC(=O)[C@H](CSSC[C@H](NC(=O)[C@@H](N)CC(=O)O)C(=O)N[C@@H](CC(C)C)C(=O)NCC(=O)N[C@@H](C)C(=O)N[C@@H](CCSC)C(=O)N[C@@H](CCCNC(=N)N)C(=O)N[C@@H](CCCCN)C(=O)N2)NC(=O)[C@H](CSSC[C@@H](C(=O)N[C@@H](CCCCN)C(=O)N[C@@H](Cc2ccc(O)cc2)C(=O)N[C@H](C(=O)N[C@@H](Cc2ccccc2)C(N)=O)C(C)C)NC(=O)[C@H](CCC(=O)O)NC(=O)[C@H](CCCCN)NC(=O)[C@H](Cc2c[nH]cn2)NC(=O)[C@H]([C@@H](C)O)NC(=O)[C@H](CCCNC(=N)N)NC(=O)[C@H](CO)NC3=O)NC(=O)[C@H](CCCCN)NC(=O)[C@H](CC(=O)O)NC(=O)[C@H](CC(N)=O)NC(=O)[C@H](CC(=O)O)NC(=O)[C@@H]2CCCN2C1=O [compound 437] (H-DCLGAMRKCIPDNDKCCRPNLVCSRTHKECKYVF-NH2; disulfide 2-17, 9-23, 16-30) | 9.26 µM | 6.09 µM | 11.9 µM |  |
| CC[C@H](C)[C@@H]1NC(=O)[C@@H]2CSSC[C@@H]3NC(=O)[C@H](C(C)C)NC(=O)[C@H](CC(C)C)NC(=O)[C@H](CC(N)=O)NC(=O)[C@@H]4CCCN4C(=O)[C@H](CCCNC(=N)N)NC(=O)[C@H](CSSC[C@H](NC(=O)[C@@H](N)CC(=O)O)C(=O)N[C@@H](CC(C)C)C(=O)NCC(=O)N[C@@H](Cc4ccccc4)C(=O)N[C@@H](CCSC)C(=O)N[C@@H](CCCNC(=N)N)C(=O)N[C@@H](CCCCN)C(=O)N2)NC(=O)[C@H](CSSC[C@@H](C(=O)N[C@@H](CCCCN)C(=O)N[C@@H](Cc2c[nH]c4ccccc24)C(=O)N[C@@H](Cc2cccc4ccccc24)C(=O)N[C@@H](Cc2ccccc2)C(N)=O)NC(=O)[C@H](Cc2c[nH]c4ccccc24)NC(=O)[C@H](CCCCN)NC(=O)[C@H](Cc2c[nH]cn2)NC(=O)[C@H]([C@@H](C)O)NC(=O)[C@H](CCCNC(=N)N)NC(=O)[C@H](CO)NC3=O)NC(=O)[C@H](CCCCN)NC(=O)[C@H](CC(=O)O)NC(=O)[C@H](CC(N)=O)NC(=O)[C@H](CC(=O)O)NC(=O)[C@@H]2CCCN2C1=O [compound 455] (H-DCLGFMRKCIPDNDKCCRPNLVCSRTHKWCKW[1Nal]F-NH2; disulfide 2-17, 9-23, 16-30) | > 5 µM | 0.04 µM | 0.02 µM |  |
| CC[C@H](C)[C@@H]1NC(=O)[C@@H]2CSSC[C@@H]3NC(=O)[C@H](C(C)C)NC(=O)[C@H](CC(C)C)NC(=O)[C@H](CC(N)=O)NC(=O)[C@@H]4CCCN4C(=O)[C@H](CCCNC(=N)N)NC(=O)[C@H](CSSC[C@H](NC(=O)[C@@H](N)CC(=O)O)C(=O)N[C@@H](CC(C)C)C(=O)NCC(=O)N[C@@H](Cc4ccccc4)C(=O)N[C@@H](CCSC)C(=O)N[C@@H](CCCNC(=N)N)C(=O)N[C@@H](CCCCN)C(=O)N2)NC(=O)[C@H](CSSC[C@@H](C(=O)N[C@@H](CCCCN)C(=O)N[C@@H](Cc2ccc(O)cc2)C(=O)N[C@H](C(=O)N[C@@H](Cc2ccccc2)C(N)=O)C(C)C)NC(=O)[C@H](Cc2c[nH]c4ccccc24)NC(=O)[C@H](CCCCN)NC(=O)[C@H](CCCCN(C)C)NC(=O)[C@H]([C@@H](C)O)NC(=O)[C@H](CCCNC(=N)N)NC(=O)[C@H](CO)NC3=O)NC(=O)[C@H](CCCCN)NC(=O)[C@H](CC(=O)O)NC(=O)[C@H](CC(N)=O)NC(=O)[C@H](CC(=O)O)NC(=O)[C@@H]2CCCN2C1=O [compound 354] (H-DCLGFMRKCIPDNDKCCRPNLVCSRT[Lys(Me2)]KWCKYVF-NH2; disulfide 2-17, 9-23, 16-30) |  |  |  | IC50 (hNav1.5; Table 23, use, […]): 12.4 µM; IC50 (hNav1.3; Table 23, use, […]): 3.82 µM; IC50 (hNav1.7; Table 23, IonWorks Quattro, use, […], read-out: IWQ Use Nav1.7): 7 µM |
| CC[C@H](C)[C@@H]1NC(=O)[C@@H]2CSSC[C@@H]3NC(=O)[C@H](C(C)C)NC(=O)[C@H](Cc4cccc5ccccc45)NC(=O)[C@H](CC(N)=O)NC(=O)[C@@H]4CCCN4C(=O)[C@H](CCCNC(=N)N)NC(=O)[C@H](CSSC[C@H](NC(=O)[C@@H](N)CC(=O)O)C(=O)N[C@@H](CC(C)C)C(=O)NCC(=O)N[C@@H](Cc4ccccc4)C(=O)N[C@@H](CCSC)C(=O)N[C@@H](CCCNC(=N)N)C(=O)N[C@@H](CCCCN)C(=O)N2)NC(=O)[C@H](CSSC[C@@H](C(=O)N[C@@H](CCCCN)C(=O)N[C@@H](Cc2ccc(O)cc2)C(=O)N[C@H](C(=O)N[C@@H](Cc2ccccc2)C(N)=O)C(C)C)NC(=O)[C@H](Cc2c[nH]c4ccccc24)NC(=O)[C@H](CCCCN)NC(=O)[C@H](Cc2c[nH]cn2)NC(=O)[C@H]([C@@H](C)O)NC(=O)[C@H](CCCNC(=N)N)NC(=O)[C@H](CO)NC3=O)NC(=O)[C@H](CCCCN)NC(=O)[C@H](CC(=O)O)NC(=O)[C@H](CC(N)=O)NC(=O)[C@H](CC(=O)O)NC(=O)[C@@H]2CCCN2C1=O [compound 165] (H-DCLGFMRKCIPDNDKCCRPN[1Nal]VCSRTHKWCKYVF-NH2; disulfide 2-17, 9-23, 16-30) |  |  |  | IC50 (hNav1.5; Use): 10.6 µM; IC50 (hNav1.3; Use): 0.09 µM; IC50 (hNav1.7): 0.08 µM |
| CC[C@H](C)[C@@H]1NC(=O)[C@@H]2CSSC[C@@H]3NC(=O)[C@H](C(C)C)NC(=O)[C@H](CC(C)C)NC(=O)[C@H](CC(N)=O)NC(=O)[C@@H]4CCCN4C(=O)[C@H](CCCNC(=N)N)NC(=O)[C@H](CSSC[C@H](NC(=O)[C@@H](N)CC(=O)O)C(=O)N[C@@H](CC(C)C)C(=O)NCC(=O)N[C@@H](Cc4ccccc4)C(=O)N[C@@H](CCSC)C(=O)N[C@@H](CCCNC(=N)N)C(=O)N[C@@H](CCCCN)C(=O)N2)NC(=O)[C@H](CSSC[C@@H](C(=O)N[C@@H](CCCCN)C(=O)N[C@@H](Cc2ccc(O)cc2)C(=O)N[C@H](C(=O)N[C@@H](Cc2ccccc2)C(N)=O)C(C)C)NC(=O)[C@H](Cc2c[nH]c4ccccc24)NC(=O)[C@H](CCCCN)NC(=O)[C@H](Cc2cnc[nH]2)NC(=O)[C@H]([C@@H](C)O)NC(=O)[C@H](CCCNC(=N)N)NC(=O)[C@H](CO)NC3=O)NC(=O)[C@H](CCCCN)NC(=O)[C@H](CC(=O)O)NC(=O)[C@H](C)NC(=O)[C@H](CC(=O)O)NC(=O)[C@@H]2CCCN2C1=O [compound 5] (H-DCLGFMRKCIPDADKCCRPNLVCSRTHKWCKYVF-NH2; disulfide 2-17, 9-23, 16-30) |  |  |  | IC50 (hNav1.5; Use): 8.15 µM; IC50 (hNav1.3; Use): 0.16 µM; IC50 (hNav1.7; IonWorks Quattro, Use, read-out: IWQ Use Nav1.7): 0.17 µM |
